Reference: ChEMBL document CHEMBL3779791, “Captopril analogues as metallo-β-lactamase inhibitors” (Bioorg Med Chem Lett, 2016)
The source made the active and inactive calls. No cut-off for these calls is given here.

Tested on: Pseudomonas aeruginosa
Experiment: Competitive inhibition of Pseudomonas aeruginosa 101/1477 metallo-beta-lactamase IMP-1 expressed in Escherichia coli BL21 (DE3) using benzylpenicillin as substrate by spectrophotometric analysis

Kic | SMILES
10 µM | O=C(O)C1CCCCN1C(=O)CCS (racemic)
inactive | O=C(O)CCCC(=O)N1CCC[C@@H]1C(=O)O
2.9 µM | O=C(O)[C@H]1CCCN1C(=O)CCS
inactive | O=C(O)CCC(=O)N1CCC[C@@H]1C(=O)O
24 µM | CC(=O)SCC(=O)N1CCCCC1C(=O)O (racemic)
2.3 µM | O=C(O)[C@H]1CCCN1C(=O)CS
363 µM | O=C(O)COC[C@H]1CCCN1C(=O)CCCS
5.8 µM | O=C(O)[C@H]1CCCN1C(=O)CCCS
7.1 µM | O=C(O)C1CCCCN1C(=O)CCCS (racemic)
390 µM | O=C(O)COC[C@H]1CCCN1C(=O)CCS
290 µM | O=C(O)COC[C@H]1CCCN1C(=O)CS
9.9 µM | O=C(O)[C@@H]1CCCN1C(=O)CCS
2.2 µM | O=C(O)[C@@H]1CCCN1C(=O)CS
inactive | O=C(O)CC(=O)N1CCC[C@@H]1C(=O)O
inactive | O=C(O)CCC(=O)N1CCC[C@H]1C(=O)O
7.2 µM | O=C(O)[C@@H]1CCCN1C(=O)CCCS
inactive | O=C(O)CC(=O)N1CCC[C@H]1C(=O)O
inactive | O=C(O)CCCC(=O)N1CCC[C@H]1C(=O)O
3.4 µM | O=C(O)C1CCCCN1C(=O)CS (racemic)
